{
  "source": "ChEMBL document CHEMBL6177980",
  "about": "(J Med Chem, 2025)",
  "key": {"[1]": {"assay": "Prodrug conversion in Beagle dog plasma assessed as parent nucleoside metabolite formation at 1 uM measured up to 60 mins by LC-MS/MS analysis", "assay_type": "ADME, cell-free, Canis lupus familiaris", "details": "1 h"}, "[2]": {"assay": "Prodrug conversion in Beagle dog plasma assessed as parent nucleoside metabolite formation administered orally or intravenously", "assay_type": "ADME, cell-free, Canis lupus familiaris", "details": "po"}, "[3]": {"assay": "Stability in Beagle dog plasma administered orally or intravenously", "assay_type": "ADME, cell-free, Canis lupus familiaris", "details": "po"}, "[4]": {"assay": "Prodrug conversion in C57BL/6J mouse assessed as Cmax of 4'-Fluorouridine metabolite at 20 mg/kg, po by LC-MS/MS analysis", "assay_type": "ADME, organism-based", "details": "in vivo"}, "[5]": {"assay": "Prodrug conversion in C57BL/6J mouse liver microsomes assessed as parent nucleoside metabolite formation at 1 uM measured up to 60 mins in presence of BNPP/NADPH/UDPGA by LC-MS/MS analysis", "assay_type": "ADME, Microsome", "details": "1 h"}, "[6]": {"test_system": "Mammarenavirus choriomeningitidis", "assay": "Antiviral activity against LCMV infected in C57BL/6-Prf1tm1Sdz/J mouse assessed as reduction in viral copy number in liver treated orally once daily for 7 days by RT-qPCR analysis", "assay_type": "functional, organism-based", "details": "dose 1-5 mg/kg, route po, time 7.0 day"}, "[7]": {"assay": "Prodrug conversion in Sprague-Dawley rat assessed as half life of 4'-Fluorouridine metabolite treated orally or intravenously by LC-MS/MS analysis", "assay_type": "ADME", "details": "in vivo, po"}, "[8]": {"assay": "Prodrug conversion in C57BL/6J mouse assessed as half life of 4'-Fluorouridine metabolite treated orally by LC-MS/MS analysis", "assay_type": "ADME", "details": "in vivo, po"}, "[9]": {"assay": "Prodrug conversion in Sprague-Dawley rat assessed as 4'-Fluorouridine-NTP metabolite formation in lung at 6 mg/kg, po measured for 0.5 to 24 hrs by LC-MS/MS analysis", "assay_type": "ADME, organism-based", "details": "in vivo, time 0.5-24 hrs"}, "[10]": {"assay": "Prodrug conversion in Sprague-Dawley rat assessed as AUC (0 to t) of 4'-Fluorouridine metabolite at 6 mg/kg, po by LC-MS/MS analysis", "assay_type": "ADME, organism-based", "details": "in vivo"}, "[11]": {"assay": "Prodrug conversion in C57BL/6J mouse assessed as AUC (0 to t) of 4'-Fluorouridine metabolite at 2 mg/kg, po by LC-MS/MS analysis", "assay_type": "ADME, organism-based", "details": "in vivo"}, "[12]": {"assay": "Prodrug conversion in Sprague-Dawley rat assessed as 4'-Fluorouridine-NTP metabolite formation in spleen at 6 mg/kg, po measured for 0.5 to 24 hrs by LC-MS/MS analysis", "assay_type": "ADME, organism-based", "details": "in vivo, time 0.5-24 hrs"}, "[13]": {"assay": "Cmax in fasted Sprague-Dawley rat at 23 mg/kg, po by LC-MS/MS analysis", "assay_type": "ADME, organism-based", "details": "in vivo"}, "[14]": {"assay": "Prodrug conversion in Sprague-Dawley rat assessed as 4'-Fluorouridine-NTP metabolite formation in brain at 6 mg/kg, po measured for 0.5 to 24 hrs by LC-MS/MS analysis", "assay_type": "ADME, organism-based", "details": "in vivo, time 0.5-24 hrs"}, "[15]": {"assay": "Prodrug conversion in Sprague-Dawley rat plasma assessed as parent nucleoside metabolite formation administered orally or intravenously", "assay_type": "ADME, cell-free", "details": "po"}, "[16]": {"test_system": "Mammarenavirus choriomeningitidis", "assay": "Antiviral activity against LCMV infected in C57BL/6-Prf1tm1Sdz/J mouse assessed as reduction in viral titer in kidney treated orally once daily for 7 days by RT-qPCR analysis", "assay_type": "functional, organism-based", "details": "dose 1-5 mg/kg, route po, time 7.0 day"}, "[17]": {"assay": "Prodrug conversion in Sprague-Dawley rat assessed as AUC (0 to t) of 4'-Fluorouridine metabolite at 2 mg/kg, iv by LC-MS/MS analysis", "assay_type": "ADME, organism-based", "details": "in vivo"}, "[18]": {"test_system": "Mammarenavirus choriomeningitidis", "assay": "In vivo antiviral activity against LCMV infected in C57BL/6-Prf1tm1Sdz/J mouse assessed as appearance of clear boundary between red and white pulp in spleen at 1 to 5 mg/kg, po qd for 7 days", "assay_type": "functional, organism-based", "details": "dose 1-5 mg/kg, time 7.0 day"}, "[19]": {"assay": "Oral bioavailability in fasted Cynomolgus monkey administered orally by LC-MS/MS analysis", "assay_type": "ADME, organism-based, Macaca fascicularis", "details": "in vivo"}, "[20]": {"assay": "Prodrug conversion in Beagle dog assessed as half life of 4'-Fluorouridine metabolite treated orally or intravenously by LC-MS/MS analysis", "assay_type": "ADME, Canis lupus familiaris", "details": "in vivo, po"}, "[21]": {"assay": "Prodrug conversion in Beagle dog assessed as AUC (0 to t) of 4'-Fluorouridine metabolite at 1 mg/kg, po by LC-MS/MS analysis", "assay_type": "ADME, organism-based, Canis lupus familiaris", "details": "in vivo"}, "[22]": {"test_system": "Mammarenavirus choriomeningitidis", "assay": "In vivo antiviral activity against LCMV infected in C57BL/6-Prf1tm1Sdz/J mouse assessed as improvement in body weight loss at 1 to 5 mg/kg, po qd treated for 7 days", "assay_type": "functional, organism-based", "details": "dose 1-5 mg/kg, time 7.0 day"}, "[23]": {"assay": "Prodrug conversion in Sprague-Dawley rat assessed as 4'-Fluorouridine metabolite formation in liver at 6 mg/kg, po measured for 0.5 to 24 hrs by LC-MS/MS analysis", "assay_type": "ADME, organism-based", "details": "in vivo, time 0.5-24 hrs"}, "[24]": {"assay": "Aqueous solubility of compound", "assay_type": "physicochemical", "details": "aqueous medium"}, "[25]": {"test_system": "Mammarenavirus choriomeningitidis", "assay": "Antiviral activity against LCMV infected in C57BL/6-Prf1tm1Sdz/J mouse assessed as reduction in viral copy number in spleen treated orally once daily for 7 days by RT-qPCR analysis", "assay_type": "functional, organism-based", "details": "dose 1-5 mg/kg, route po, time 7.0 day"}, "[26]": {"assay": "Prodrug conversion in Sprague-Dawley rat assessed as Cmax of 4'-Fluorouridine metabolite at 20 mg/kg, po by LC-MS/MS analysis", "assay_type": "ADME, organism-based", "details": "in vivo"}, "[27]": {"assay": "Cytotoxicity against African green monkey Vero cells", "assay_type": "toxicity, cell-based", "details": "chlorocebus sabaeus"}, "[28]": {"assay": "Prodrug conversion in Beagle dog assessed as Cmax of 4'-Fluorouridine metabolite at 3 mg/kg/day, po treated for 7 days by LC-MS/MS analysis", "assay_type": "ADME, organism-based, Canis lupus familiaris", "details": "in vivo, 168 h, time 7 day"}, "[29]": {"assay": "Prodrug conversion in Sprague-Dawley rat liver microsomes assessed as parent nucleoside metabolite formation at 1 uM measured up to 60 mins in presence of NADPH/UDPGA by LC-MS/MS analysis", "assay_type": "ADME, Microsome", "details": "1 h"}, "[30]": {"assay": "Prodrug conversion in Sprague-Dawley rat assessed as 4'-Fluorouridine metabolite formation in lung at 6 mg/kg, po measured for 0.5 to 24 hrs by LC-MS/MS analysis", "assay_type": "ADME, organism-based", "details": "in vivo, time 0.5-24 hrs"}, "[31]": {"assay": "AUC (0 to t) in fasted Sprague-Dawley rat at 23 mg/kg, po by LC-MS/MS analysis", "assay_type": "ADME, organism-based", "details": "in vivo"}, "HepG2": {"test_system": "HepG2", "assay": "Mitochondrial toxicity in human HepG2 cells cultured in glucose containing medium at 100 uM", "assay_type": "cell-based", "details": "hepg2, 100 µM"}, "[32]": {"assay": "Prodrug conversion in Beagle dog liver microsomes assessed as parent nucleoside metabolite formation at 1 uM measured up to 60 mins in presence of NADPH/UDPGA by LC-MS/MS analysis", "assay_type": "ADME, Canis lupus familiaris, Microsome", "details": "1 h"}, "[33]": {"assay": "Prodrug conversion in Sprague-Dawley rat assessed as 4'-Fluorouridine metabolite formation in thymus at 6 mg/kg, po measured for 0.5 to 24 hrs by LC-MS/MS analysis", "assay_type": "ADME, organism-based", "details": "in vivo, time 0.5-24 hrs"}, "[34]": {"assay": "Prodrug conversion in Beagle dog assessed as Cmax of 4'-Fluorouridine metabolite at 3 mg/kg, po by LC-MS/MS analysis", "assay_type": "ADME, organism-based, Canis lupus familiaris", "details": "in vivo"}, "[35]": {"assay": "Stability in C57BL/6J mouse plasma administered orally or intravenously", "assay_type": "ADME, cell-free", "details": "po"}, "[36]": {"test_system": "Mammarenavirus choriomeningitidis", "assay": "In vivo antiviral activity against LCMV infected in C57BL/6-Prf1tm1Sdz/J mouse assessed as improvement in splenic tissue lesion at 1 to 5 mg/kg, po qd for 7 days", "assay_type": "functional, organism-based", "details": "dose 1-5 mg/kg, time 7.0 day"}, "[37]": {"test_system": "Mammarenavirus choriomeningitidis", "assay": "In vivo antiviral activity against LCMV infected in C57BL/6-Prf1tm1Sdz/J mouse assessed as improvement in platelet count at 1 to 5 mg/kg, po qd treated for 7 days", "assay_type": "functional, organism-based", "details": "dose 1-5 mg/kg, time 7.0 day"}, "[38]": {"assay": "AUC (0 to t) in fasted Cynomolgus monkey at 11.6 mg/kg, po by LC-MS/MS analysis", "assay_type": "ADME, organism-based, Macaca fascicularis", "details": "in vivo"}},
  "note": "Activity calls are given as the source filed them. The rule behind the calls is not given here.",
  "data": [
    {"compound": "CC(C)C(=O)OC[C@@]1(F)O[C@@H](n2ccc(=O)n(COC(=O)c3cccnc3)c2=O)[C@H](OC(=O)C(C)C)[C@@H]1OC(=O)C(C)C", "values": [
      {"measurement": "Drug metabolism", "setting": "[1]", "result": "metabolite_detected"},
      {"measurement": "Drug metabolism", "setting": "[2]", "result": "metabolite_detected"},
      {"measurement": "Stability", "setting": "[3]", "result": "Unstable"},
      {"measurement": "Cmax", "setting": "[4]", "result": 788, "unit": "ng/mL"},
      {"measurement": "Drug metabolism", "setting": "[5]", "result": "metabolite_notdetected"},
      {"measurement": "Activity", "setting": "[6]", "result": "Dose-dependent-effect"},
      {"measurement": "t1/2", "setting": "[7]", "result": 15, "unit": "h"},
      {"measurement": "t1/2", "setting": "[8]", "result": 12, "unit": "h"},
      {"measurement": "Drug metabolism", "setting": "[9]", "result": "metabolite_detected"},
      {"measurement": "AUCt", "setting": "[10]", "result": 3023, "unit": "ng·h/mL"},
      {"measurement": "AUCt", "setting": "[11]", "result": 826, "unit": "ng·h/mL"},
      {"measurement": "Drug metabolism", "setting": "[12]", "result": "metabolite_detected"},
      {"measurement": "Cmax", "setting": "[13]", "result": 1230, "unit": "ng/mL"},
      {"measurement": "Drug metabolism", "setting": "[14]", "result": "metabolite_detected"},
      {"measurement": "Drug metabolism", "setting": "[15]", "result": "metabolite_detected"},
      {"measurement": "Activity", "setting": "[16]", "result": "Dose-dependent-effect"},
      {"measurement": "AUCt", "setting": "[17]", "result": 1056, "unit": "ng·h/mL"},
      {"measurement": "Activity", "setting": "[18]", "result": "Active"},
      {"measurement": "bioavailability", "setting": "[19]", "result": 75.2, "unit": "%"},
      {"measurement": "t1/2", "setting": "[20]", "result": 1, "unit": "h"},
      {"measurement": "AUCt", "setting": "[21]", "result": 257, "unit": "ng·h/mL"},
      {"measurement": "Activity", "setting": "[22]", "result": "Active"},
      {"measurement": "Drug metabolism", "setting": "[23]", "result": "metabolite_detected"},
      {"measurement": "solubility", "setting": "[24]", "result": 10, "unit": "µg/mL"},
      {"measurement": "Activity", "setting": "[25]", "result": "Dose-dependent-effect"},
      {"measurement": "Cmax", "setting": "[26]", "result": 1142, "unit": "ng/mL"},
      {"measurement": "CC50", "setting": "[27]", "result": "> 100", "unit": "µM"},
      {"measurement": "Cmax", "setting": "[28]", "result": 411, "unit": "ng/mL"},
      {"measurement": "Drug metabolism", "setting": "[29]", "result": "metabolite_detected"},
      {"measurement": "Drug metabolism", "setting": "[30]", "result": "metabolite_detected"},
      {"measurement": "AUC(0-t)", "setting": "[31]", "result": 11800, "unit": "ng·h/mL"},
      {"measurement": "Activity", "setting": "HepG2", "result": "Non-toxic"},
      {"measurement": "Drug metabolism", "setting": "[32]", "result": "metabolite_detected"},
      {"measurement": "Drug metabolism", "setting": "[33]", "result": "metabolite_detected"},
      {"measurement": "Cmax", "setting": "[34]", "result": 495, "unit": "ng/mL"},
      {"measurement": "Stability", "setting": "[35]", "result": "Unstable"},
      {"measurement": "Activity", "setting": "[36]", "result": "Active"},
      {"measurement": "Activity", "setting": "[37]", "result": "Active"},
      {"measurement": "AUC(0-t)", "setting": "[38]", "result": 15100, "unit": "ng·h/mL"}
    ]}
  ]
}
